# Source: patent publication US8580815B2, “Derivatives of azaindoles as inhibitors of protein kinases ABL and SRC” (Oribase Pharma, priority 2009, dated 2013)
# Like-named read-outs stand apart in the source and are kept apart here.
# How the values were obtained:
# Abl kinase (h) = Abl kinase (h) (Homo sapiens (Human), UniProt P00519); assay: Cerep kinase profiling, HTRF assay, Abl kinase; type: biochemical
# Method: (§1) The inhibitory activity of the compounds of the chemical series on different protein kinases was evaluated by Cerep (Cerep Kinase Profiling Service; www.cerep.com). The kinases used in the tests in vitro are human recombinant proteins expressed in human cells, insect cells or in bacteria. […] The activity of the kinase was then detected by an HTRF assay. The HTRF assay (CisBio International) is based on fluorescence transfer, using Europium (Eu3+) cryptate and XL665 respectively as donor and acceptor. When the biotinylated or tagged substrate is phosphorylated by the kinase, it reacts with a cryptate-labelled phosphospecific antibody. Addition of Streptavidin-XL665, SA-XL665, (or anti-tag antibody XL665) leads to juxtaposition of the cryptate and of the fluorophore XL665, which is reflected in fluorescence resonance energy transfer (FRET). The intensity of FRET depends on the quantity of cryptate-labelled antibody bound to the substrate, which is proportional to the quantity of phosphorylated substrate (Mathis, G. Probing molecular interactions with homogeneous techniques based on rare earth cryptates and fluorescence energy transfer.
# c-kit kinase (h) = c-kit kinase (h) (Homo sapiens (Human), UniProt P10721); assay: Cerep kinase profiling, HTRF assay, c-kit kinase; type: biochemical; details: compound incubated at 10 μM; read-out: Percentage inhibition of kinase c-kit
# c-kit kinase (h), sequence (P10721 26-976): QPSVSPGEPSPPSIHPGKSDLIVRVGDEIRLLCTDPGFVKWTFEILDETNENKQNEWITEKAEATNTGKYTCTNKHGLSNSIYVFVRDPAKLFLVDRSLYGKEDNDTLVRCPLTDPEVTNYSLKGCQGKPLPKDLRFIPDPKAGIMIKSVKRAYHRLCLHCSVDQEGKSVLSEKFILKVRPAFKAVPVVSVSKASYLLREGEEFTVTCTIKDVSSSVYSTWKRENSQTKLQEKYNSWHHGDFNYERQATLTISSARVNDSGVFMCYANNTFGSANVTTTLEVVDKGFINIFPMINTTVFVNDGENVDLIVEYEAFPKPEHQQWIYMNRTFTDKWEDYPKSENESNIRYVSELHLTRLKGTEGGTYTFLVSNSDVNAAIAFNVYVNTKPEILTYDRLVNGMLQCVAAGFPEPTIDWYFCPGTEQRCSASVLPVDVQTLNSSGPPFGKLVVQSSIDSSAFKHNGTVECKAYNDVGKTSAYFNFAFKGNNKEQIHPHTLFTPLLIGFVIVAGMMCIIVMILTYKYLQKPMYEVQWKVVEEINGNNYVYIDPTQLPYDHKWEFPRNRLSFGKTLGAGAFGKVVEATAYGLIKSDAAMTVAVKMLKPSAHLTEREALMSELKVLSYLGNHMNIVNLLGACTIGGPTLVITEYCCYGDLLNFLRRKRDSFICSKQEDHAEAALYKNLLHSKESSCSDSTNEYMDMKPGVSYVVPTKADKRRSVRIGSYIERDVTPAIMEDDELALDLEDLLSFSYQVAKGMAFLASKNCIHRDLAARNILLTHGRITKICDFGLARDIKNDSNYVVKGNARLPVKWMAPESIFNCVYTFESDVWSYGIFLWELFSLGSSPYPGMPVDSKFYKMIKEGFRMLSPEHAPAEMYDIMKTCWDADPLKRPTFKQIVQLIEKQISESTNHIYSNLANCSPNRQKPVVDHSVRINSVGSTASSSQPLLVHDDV
# Method: as §1, with “bacteria. [table]” for “bacteria.”, “transfer. Clin Chem 41, 1391-7 (1995)).” for “transfer.”
# Src kinase (h) = Src kinase (h) (Homo sapiens (Human), UniProt P12931); assay: Cerep kinase profiling, HTRF assay, Src kinase; type: biochemical
# Src kinase (h), sequence (P12931 whole entry, looked up): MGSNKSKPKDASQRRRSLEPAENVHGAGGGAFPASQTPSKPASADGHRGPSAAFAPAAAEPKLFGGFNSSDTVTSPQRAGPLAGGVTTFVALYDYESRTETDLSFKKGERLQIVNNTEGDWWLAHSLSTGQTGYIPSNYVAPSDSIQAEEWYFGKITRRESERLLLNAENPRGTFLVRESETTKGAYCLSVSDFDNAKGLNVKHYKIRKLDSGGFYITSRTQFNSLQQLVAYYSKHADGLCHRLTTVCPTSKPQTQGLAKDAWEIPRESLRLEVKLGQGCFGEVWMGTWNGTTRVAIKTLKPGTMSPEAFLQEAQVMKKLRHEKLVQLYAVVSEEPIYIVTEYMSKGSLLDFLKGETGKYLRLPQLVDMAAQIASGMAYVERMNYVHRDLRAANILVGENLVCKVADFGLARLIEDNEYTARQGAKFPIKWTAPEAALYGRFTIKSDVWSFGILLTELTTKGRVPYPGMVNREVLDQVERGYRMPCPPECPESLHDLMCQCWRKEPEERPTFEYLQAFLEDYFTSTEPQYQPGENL
# Method: as §1
# AurA/Aur2 kinase (h) = AurA/Aur2 kinase (h) (Homo sapiens (Human), UniProt O14965); assay: Cerep kinase profiling, HTRF assay, Aurora-A kinase; type: biochemical; details: compound incubated at 10 μM; read-out: Percentage inhibition of kinase Aurora-A
# AurA/Aur2 kinase (h), sequence (O14965 whole entry): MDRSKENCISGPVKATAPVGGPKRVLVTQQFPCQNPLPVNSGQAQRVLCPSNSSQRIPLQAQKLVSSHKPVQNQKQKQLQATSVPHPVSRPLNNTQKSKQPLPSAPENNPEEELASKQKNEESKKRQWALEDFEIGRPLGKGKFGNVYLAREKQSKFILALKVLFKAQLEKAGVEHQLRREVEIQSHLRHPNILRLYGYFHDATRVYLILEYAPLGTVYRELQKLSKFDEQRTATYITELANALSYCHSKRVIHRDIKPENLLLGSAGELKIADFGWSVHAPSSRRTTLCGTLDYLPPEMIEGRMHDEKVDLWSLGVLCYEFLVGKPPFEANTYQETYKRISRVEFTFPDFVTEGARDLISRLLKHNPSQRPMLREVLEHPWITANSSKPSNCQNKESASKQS
# Method: as §1, with “bacteria. [table]” for “bacteria.”, “transfer. Clin Chem 41, 1391-7 (1995)).” for “transfer.”
# PDGFRα kinase (h) = PDGFRα kinase (h) (Homo sapiens (Human), UniProt P16234); assay: Cerep kinase profiling, HTRF assay, PDGFRα kinase; type: biochemical; details: compound incubated at 10 μM; read-out: Percentage inhibition of kinase PDGFR-α
# PDGFRα kinase (h), sequence (P16234 24-1089): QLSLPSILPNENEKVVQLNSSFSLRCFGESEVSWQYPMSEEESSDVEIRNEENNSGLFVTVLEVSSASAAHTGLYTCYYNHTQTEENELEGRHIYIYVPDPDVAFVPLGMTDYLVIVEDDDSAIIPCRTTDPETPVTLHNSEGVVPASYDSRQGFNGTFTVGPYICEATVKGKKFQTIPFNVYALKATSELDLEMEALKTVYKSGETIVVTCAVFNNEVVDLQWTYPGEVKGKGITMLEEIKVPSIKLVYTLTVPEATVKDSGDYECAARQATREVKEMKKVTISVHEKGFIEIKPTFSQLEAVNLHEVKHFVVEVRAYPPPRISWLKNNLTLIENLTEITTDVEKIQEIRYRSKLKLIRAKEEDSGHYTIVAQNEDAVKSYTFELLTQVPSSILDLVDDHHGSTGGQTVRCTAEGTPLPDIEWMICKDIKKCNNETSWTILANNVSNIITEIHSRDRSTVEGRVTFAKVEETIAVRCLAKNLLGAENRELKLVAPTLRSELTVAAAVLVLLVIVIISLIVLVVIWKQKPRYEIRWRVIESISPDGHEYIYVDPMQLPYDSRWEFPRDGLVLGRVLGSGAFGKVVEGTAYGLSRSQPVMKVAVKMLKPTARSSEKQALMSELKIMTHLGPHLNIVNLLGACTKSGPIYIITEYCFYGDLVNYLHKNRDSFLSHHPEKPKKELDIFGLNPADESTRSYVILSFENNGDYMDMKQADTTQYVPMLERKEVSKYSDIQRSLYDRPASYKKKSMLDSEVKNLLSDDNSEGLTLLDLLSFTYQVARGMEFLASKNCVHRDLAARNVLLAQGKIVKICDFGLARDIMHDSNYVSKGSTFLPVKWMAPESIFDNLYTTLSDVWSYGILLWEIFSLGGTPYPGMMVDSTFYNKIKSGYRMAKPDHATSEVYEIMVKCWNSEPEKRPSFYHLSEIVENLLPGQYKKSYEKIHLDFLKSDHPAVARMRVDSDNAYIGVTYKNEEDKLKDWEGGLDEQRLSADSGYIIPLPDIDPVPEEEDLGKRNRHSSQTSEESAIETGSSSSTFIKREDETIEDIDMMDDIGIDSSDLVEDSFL
# Method: as §1, with “bacteria. [table]” for “bacteria.”, “transfer. Clin Chem 41, 1391-7 (1995)).” for “transfer.”
# Abl WT = Abl WT (Homo sapiens (Human), UniProt P00519); assay: Reaction Biology Corp. kinase assay, Abl WT; type: biochemical; details: for IC50: ATP at 10 μM
# Method: (§2) 4 compounds were tested for their capacity to inhibit various mutated kinases AbI (American company, Reaction Biology Corp.).
# Abl Y253F = Abl Y253F (Homo sapiens (Human), UniProt P00519, Y253F); assay: Reaction Biology Corp. kinase assay, mutated Abl Y253F; type: biochemical; details: Table 11; ATP at 10 μM
# Method: as §2
# Abl T315I = Abl T315I (Homo sapiens (Human), UniProt P00519, T315I); assay: Reaction Biology Corp. kinase assay, mutated Abl T315I; type: biochemical; details: for inhibition at 10 µM: Reaction Biology Corp., read-out: % inhibition of kinase activity, Abl T315I (category)
# Method: as §2
# [1] = system: K562 cells expressing kinase Bcr-AbI; assay: Inhibition of cellular proliferation (MTT), K562 cells; type: cell-based, human
# Method: Cellular tests were carried out at the Montpellier Cancer Research Centre. The inhibition of proliferation by our compounds was analysed on 2 cell lines (U937 and K562) by calculating the IC50, testing 6 concentrations in triplicate for each of the compounds and for each line.
# Cells in exponential phase were seeded in 96-well plates at a concentration of 10^4 cells/100 μL/well. The final concentrations of compound in the well in contact with the cells were 0.1; 0.3; 0.9; 3.3; 10; 30; 90 μM. […]
# U937 cells (BCR-Abl−) [2] = system: U937 cells (BCR-Abl−)
# U937 cells (BCR-Abl−) [3] = assay: cells; details: Homo sapiens, U-937, 72 h
# [4] = system: K562 cells expressing kinase Bcr-AbI; details: known activity; BCR-Abl+ cells, patient with CML; cited from earlier work
# Src kinase = Src kinase (Homo sapiens (Human), UniProt P12931); assay: Reaction Biology Corp. kinase assay, Src; details: compounds tested by Reaction Biology Corp.; for IC50: IC50 on kinase Src (category), ATP at 10 μM; for inhibition at 10 µM: read-out: % inhibition of kinase activity, Src (category), 10 μM
# Src kinase, sequence (P12931 whole entry, looked up): as the sequence (P12931 whole entry, looked up) above
# [5] = 10 μM, compounds tested by Cerep, read-out: % inhibition of kinase activity, Abl WT (category)
# [6] = Table 6, compound incubated at 10 μM, read-out: Percentage inhibition of kinase Abl
# [7] = Table 8, compound incubated at 10 μM, read-out: Percentage inhibition of kinase Abl
# [8] = Table 9, Cerep, 5 concentrations 10^−10 M to 10^−4 M, read-out: IC50 in M Abl
# [9] = compounds tested by Cerep, read-out: IC50 on kinase Abl WT (category)
# [10] = 10 μM, compounds tested by Cerep, read-out: % inhibition of kinase activity, Src (category)
# [11] = compound incubated at 10 μM, read-out: Percentage inhibition of kinase c-Src
# [12] = Homo sapiens, K562, 24 h, 24 h incubation, read-out: IC50 at 24 h on K562 (category)
# [13] = Homo sapiens, K562, 72 h, read-out: IC50 at 72 h on K562 (category), 72 h incubation
# [14] = compounds tested by Reaction Biology Corp., read-out: IC50 on kinase Abl WT (category)
Structure (SMILES),inhibition at 10 µM (Abl kinase (h); [5]) [%],inhibition at 10 µM (Abl kinase (h); [6]) [%],inhibition at 10 µM (Abl kinase (h); [7]) [%],inhibition at 10 µM (Src kinase (h); [10]) [%],inhibition at 10 µM (Src kinase (h); [11]) [%],"IC50 [1, 12] [µM]","IC50 [1, 13] [µM]",other results
"COC(=O)c1cc2cc(NC(=O)c3ccccc3Br)cnc2[nH]1 [ND0020, Methyl 5-(2-bromobenzamido)-1H-pyrrolo[2,3-b]pyridine-2-carboxylate]",> 50,85,85,> 50,50,1 to 10,1 to 10,"IC50 (Abl kinase (h); [8]): 460 nM; IC50 (Abl kinase (h); [9]): 100 to 10000 nM; inhibition at 10 µM (c-kit kinase (h)): 10%; inhibition at 10 µM (AurA/Aur2 kinase (h)): 5%; inhibition at 10 µM (PDGFRα kinase (h)): 0%; IC50 (Abl WT; Table 11, read-out: IC50 in nM Abl WT): 44.6 nM; IC50 (Abl Y253F): < 10 nM; IC50 (Abl T315I; Table 11, ATP at 10 μM, read-out: IC50 in nM Abl T315I): > 100000 nM"
O=C(Nc1cnc2[nH]c(CNc3ccc(O)cc3)cc2c1)c1ccccc1Br [ND0038],> 50,94,94,> 50,71,,,IC50 (Abl kinase (h); [8]): 2600 nM; IC50 (Abl kinase (h); [9]): 100 to 10000 nM
Cc1ccc(NC(=O)c2ccc(CN3CCN(C)CC3)cc2)cc1Nc1nccc(-c2cccnc2)n1 [Imatinib],,,,,,,,Action of Imatinib on K562 [4]: Sensitive
O=C(Nc1cnc2[nH]c(Cc3ccc[nH]3)cc2c1)c1ccccc1Br [ND0037],> 50,97,97,> 50,72,,,

# The next lines start with results.
inhibition at 10 µM (Abl kinase (h); [5]) [%],inhibition at 10 µM (Abl kinase (h); [6]) [%],inhibition at 10 µM (Abl kinase (h); [7]) [%],inhibition at 10 µM (Src kinase (h); [10]) [%],inhibition at 10 µM (Src kinase (h); [11]) [%],"IC50 [1, 12] [µM]","IC50 [1, 13] [µM]",Structure (SMILES),other results
> 50,100,100,> 50,90,,> 10,"CN(C)CCCNC(=O)c1cc2cc(NC(=O)c3ccccc3Br)cnc2[nH]1 [ND0009, 5-(2-bromobenzamido)-N-(3-(dimethylamino)propyl)-1H-pyrrolo[2,3-b]pyridine-2-carboxamide]","inhibition at 10 µM (c-kit kinase (h)): 44%; IC50 (Src kinase (h); Table 9, Cerep, read-out: IC50 in M c-Src): 2200 nM; IC50 (Src kinase (h); compound tested by Cerep, read-out: IC50 on kinase Src (category)): 100 to 10000 nM; inhibition at 10 µM (AurA/Aur2 kinase (h)): 5%; inhibition at 10 µM (PDGFRα kinase (h)): 11%; activity on the Bcr-AbI+ cells (K562), in words [1]: active; IC50 ([1]; Homo sapiens, K562, 72 h, Table 12, 72 h of treatment, MTT, read-out: IC50 (μM) K562): 6 µM; IC50 ([1]; Homo sapiens, K562, incubation time not stated (24 h and/or 72 h), read-out: IC50 for the K562 Bcr-AbI kinase (category)): > 10 µM; activity on the Bcr-AbI− cells (U937), in words (U937 cells (BCR-Abl−) [2]): not on the Bcr-AbI− cells; IC50 (U937 cells (BCR-Abl−) [3]; read-out: IC50 (μM) U937, Table 12, 72 h of treatment, MTT): > 100 µM; IC50 (U937 cells (BCR-Abl−) [3]; read-out: IC50 at 72 h on U937 (category), 72 h incubation): > 10 µM"
> 50,94,94,> 50,74,,,"COC(=O)c1cc2cc(NC(=O)c3c(F)cccc3OC)cnc2[nH]1 [ND0047, Methyl 5-(2-fluoro-6-methoxybenzamido)-1H-pyrrolo[2,3-b]pyridine-2-carboxylate]",
> 50,94,94,> 50,59,,,"COCc1cc2cc(NC(=O)c3ccccc3Br)cnc2[nH]1 [ND0021, 2-bromo-N-(2-(methoxymethyl)-1H-pyrrolo[2,3-b]pyridin-5-yl)benzamide]",
,,,,,> 10,0.01 to 1,"COC(=O)c1cc2cc(NC(=O)c3c(C)cccc3Cl)cnc2[nH]1 [ND0074, Methyl 5-(2-chloro-6-methylbenzamido)-1H-pyrrolo[2,3-b]pyridine-2-carboxylate]","IC50 (Abl WT; [14]): 1 to 100 nM; inhibition at 10 µM (Abl T315I): < 10%; IC50 ([1]; incubation time not stated (24 h and/or 72 h), read-out: IC50 for the K562 Bcr-AbI kinase (category)): > 10 µM; IC50 (Src kinase): 1 to 100 nM; inhibition at 10 µM (Src kinase): > 50%"
,,,,,> 10,0.01 to 1,COC(=O)c1cc2cc(NCc3c(C)cccc3Cl)cnc2[nH]1 [ND0089],"inhibition at 10 µM (Abl WT; 10 μM, compounds tested by Reaction Biology Corp., read-out: % inhibition of kinase activity, Abl WT (category)): > 50%; IC50 (Abl WT; [14]): 1 to 100 nM; inhibition at 10 µM (Abl T315I): < 10%; IC50 (Src kinase): 1 to 100 nM; inhibition at 10 µM (Src kinase): > 50%"
